Source: ChEMBL document CHEMBL3045773, “Synthesis and structureactivity relationship of acylthiourea derivatives as inhibitors of microsomal epoxide hydrolase” (Med Chem Res, 2012)

Target: T1, Epoxide hydrolase 1 (Homo sapiens, UniProt P07099)
T1 sequence (P07099 whole entry): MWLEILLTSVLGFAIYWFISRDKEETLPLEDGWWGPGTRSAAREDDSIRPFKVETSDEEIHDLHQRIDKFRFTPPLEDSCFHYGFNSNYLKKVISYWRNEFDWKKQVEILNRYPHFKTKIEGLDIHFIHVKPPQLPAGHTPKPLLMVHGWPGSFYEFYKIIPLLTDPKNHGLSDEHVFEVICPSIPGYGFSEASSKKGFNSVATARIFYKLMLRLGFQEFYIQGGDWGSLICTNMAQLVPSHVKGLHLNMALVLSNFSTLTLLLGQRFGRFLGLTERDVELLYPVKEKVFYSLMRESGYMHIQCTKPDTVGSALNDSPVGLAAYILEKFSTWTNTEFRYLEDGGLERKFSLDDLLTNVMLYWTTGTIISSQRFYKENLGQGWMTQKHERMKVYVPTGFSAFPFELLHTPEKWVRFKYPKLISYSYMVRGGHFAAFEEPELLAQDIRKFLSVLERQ
Test: Inhibition of microsomal epoxide hydrolase (unknown origin) using 7-(2-(Oxiran-2-yl)ethoxy) Resorufin by fluorometric method

Structure (SMILES)	IC50 [µM]
CC(=O)NC(=S)NC(C)(C)C	2.7
CC(=O)NC(=S)Nc1ccc(Br)c(C(F)(F)F)c1	1.39
CC(=O)NC(=S)Nc1cc(Cl)ccc1Cl	2.29
O=C(Nc1ccccc1)Nc1ccccc1	1.2
COc1cc([N+](=O)[O-])ccc1NC(=S)NC(C)=O	1.87
CCOc1ccc(OCC)c(NC(=S)NC(C)=O)c1	2.53
CC(=O)NC(=S)Nc1ccc(N2CCOCC2)cc1	2.59
CC(=O)NC(=S)Nc1ccc(Cl)cc1	2.21
O=C(NC(=S)NC12CC3CC(CC(C3)C1)C2)c1ccccc1	1.01
CC(=O)NC(=S)Nc1ccccc1C	1.5
CC(=O)NC(=S)Nc1ccncc1	2.07
COc1cc(C)ccc1NC(=S)NC(C)=O	1.69
CC(=O)NC(=S)NC12CC3CC(CC(C3)C1)C2	1.12

The next lines start with the values.

IC50 [µM]	Structure (SMILES)
2.42	CC(=O)NC(=S)Nc1ccc(Br)c2ccccc12
1.88	O=C(NC(=S)Nc1ccc(Br)c2ccccc12)c1ccccc1
1.72	O=C(NC(=S)Nc1ccc(N2CCOCC2)cc1)c1ccccc1
1.64	CC(=O)NC(=S)Nc1ccc(Br)cc1
3.54	Cc1ccccc1NC(=S)NC(=O)c1ccccc1
3.44	O=C(NC(=S)Nc1ccc(Br)cc1)c1ccccc1
2.28	O=C(NC(=S)Nc1ccncc1)c1ccccc1
1.65	COc1cc([N+](=O)[O-])ccc1NC(=S)NC(=O)c1ccccc1
1.58	CC(C)(C)NC(=S)NC(=O)c1ccccc1
1.29	O=C(NC(=S)Nc1ccccc1)c1ccccc1 [N-(PHENYLCARBAMOTHIOYL)BENZAMIDE]
2.04	CCOc1ccc(OCC)c(NC(=S)NC(=O)c2ccccc2)c1
2.54	COc1cc(C)ccc1NC(=S)NC(=O)c1ccccc1
2.15	O=C(NC(=S)Nc1cc(Cl)ccc1Cl)c1ccccc1
2.1	O=C(NC(=S)Nc1ccc(Oc2ccccc2)cc1)c1ccccc1
3.7	CC(=O)NC(=S)Nc1ccc(Oc2ccccc2)cc1
1.17	O=C(NC(=S)Nc1ccc(Br)c(C(F)(F)F)c1)c1ccccc1
2.35	CC(=O)NC(=S)Nc1ccccc1 [N-(PHENYLCARBAMOTHIOYL)ACETAMIDE]
1.64	O=C(NC(=S)Nc1ccc(Cl)cc1)c1ccccc1
